# Measured values published in patent US20040248099A1, “Use of intermediate -conductance potassium channels and modulators for diagnosing and treating diseases having disturbed keratinocyte activity” (priority 2000, published 2004).
# “Also recorded” adds a separate entry of the source.
# What was measured:
# [1] = test system: HaCaT keratinocytes; assay: BrDU incorporation cell proliferation ELISA in HaCaT keratinocytes
# Method: The influence of activators of IK1 on proliferation was investigated using 1-EBIO and zolxazolamine (see above). Firstly, the influence of different concentrations of 1-EBIO on the growth rate of HaCaT cells was measured in the presence and in the absence of serum. For this purpose, 1×10^4 HaCaT cells per well were cultured in keratinocyte growth medium (KGM) for 5 days in a 96-well plate, in order to synchronize the cell cycle, with this being followed by a two-day incubation in the presence of different concentrations of 1-EBIO in KGM (see FIGS. 7 and 8) in the absence (FIG. 7) and in the presence (FIG. 8) of serum. […] 1% DMSO in KGM served as the solvent control. Cell proliferation was measured by the incorporation of bromodideoxyuridine (BrDU) while cell division was measured in accordance with the manufacturer's instructions (‘The Cell Proliferation ELISA, BrDU, Roche). The incorporation of BrDU was quantified by determining the absorption at 450 nm. In FIGS. 7 and 8, the absorption (A[450 nm]) is in each case plotted on the Y axis as a measure of the proliferation rate. Greater absorption reflects greater proliferation.
# [2] = test system: HaCaT keratinocytes; assay: Proliferation of subconfluent HaCaT keratinocytes, number of cells per well determined daily; assay type: cell-based, human; settings: n=3
# Method: In order to investigate the effect of the hIK1 channel inhibitors clotrimazole and charybdotoxin, either 10 μM clotrimazole, 200 nM charybdotoxin (ChTx) or 1 mM 1-EBIO were/was added to cells which were growing subconfluently and the number of cells per well was determined daily.
# [3] = test system: HaCaT cells; assay: Keratinocyte differentiation by immunostaining with anti-K10 antibody; assay type: cell-based, human; settings: 1-EBIO 1 mM, 3 days
# [4] = test system: HaCaT keratinocytes; assay: Patch-clamp recording of the membrane potential of HaCaT keratinocytes (current clamp; ATP-induced response); assay type: cell-based, human; settings: for blockers leading to a comparable depolarization on a plateau during treatment with ATP: other K+ channel blockers tested
# Method: In order to identify an ion channel which is substantially involved in the transduction of wound healing-specific signals, HaCaT cells were investigated electrophysiologically. The HaCaT keratinocytes were propagated in DEM containing 10% FCS (Gibco BRL) to which antibiotics (penicillin/streptomycin, 100 U/ml) had been added. […] The patch pipettes were prepared from small borosilicate tubes on a horizontal pulling device (DMZ, Zeitz) using the two-step pulling method. […] The resistance of these patch pipettes was 5-8 GΩ in the bath. After a seal in the GΩ range had been produced (typically 1.5-2 GΩ) the amplifier was switched to current clamp mode. […] The electrophysiological signals were recorded, amplified and digitalized using an Axopatch 200 amplifier in combination with a TL-1 Labmaster Interface and AXOTAPE software (Axon Instruments). The statistical analysis (one-way ANOVA with Bonferri post-test comparison) was carried out using Graphpad prism 2.0. […]
# The inflow of liquid was gravity-dependent and was controlled by means of magnetic valves. Outflow was effected by applying a negative pressure using a vacuum pump. Substances were added, while observing visually, directly into the keratinocytes under investigation using a remotely controlled, magnet-controlled Y tube system (diameter of the efflux tube: 100 μm).
# The electrophysiological recordings were carried out, using perforated patches, on HaCaT cells which had grown into a confluent monolayer.
# [5] = test system: HaCaT cells; assay: Immunoblotting of the differentiation markers involucrin, keratin 1 and keratin 10; assay type: cell-based, human; settings: 1-EBIO 1, 100, 1000 μM, 4 days; dose-dependent
# Method: For this, 5×10^5 HaCaT cells per well were grown in medium in a 6-well plate. […] 1% DMSO in medium was used as the solvent control (lane ‘C’). The cells were incubated for 4 days, with the medium being replaced daily. After 4 days, the protein concentration in the cell lysates was determined (BCA Assay, Pierce). Immunoblotting was then used to compare equal quantities of protein from the different lysates with the keratinocyte differentiation markers involucrin (1:500, Sigma) and keratin 1 and 10 (1:250, Progen) (FIG. 6).
compound,measurement,setting,value
"CCn1c(=O)[nH]c2ccccc21 [1-EBIO, 1-ethyl-2-benzimidazolinone]",cell morphology and apoptosis under activator,[1],no sign of apoptosis
same,concentration of strongest inhibition of serum-induced proliferation,[1]; 10% FCS,1 mM
same,dose dependence of the inhibition of serum-induced proliferation,[1]; 10% FCS,dose-dependent
same,effect on serum-induced proliferation (BrDU incorporation),"[1]; 10% FCS, different concentrations of 1-EBIO, two-day incubation",inhibit serum-induced proliferation
same,stimulation of cell proliferation (BrDU incorporation),"[1]; absence of serum, different concentrations of 1-EBIO, two-day incubation",not on their own able to stimulate cell proliferation
same,influence on proliferation,[2]; 1-EBIO 1 mM,inhibited proliferation completely; also recorded: complete inhibition
same,proportion of K10-stained (partially differentiated) cells versus control cells,[3],signficantly reduced
same,membrane potential (rapid and powerful hyperpolarization to),"[4]; 1-EBIO 1 mM, n=3",−83±3 mV
same,"transient depolarization on adding ATP, compared with controlled conditions",[4]; ATP 10 μM in the presence of 1-EBIO 1 mM,much stronger
same,"effect on differentiation (involucrin, K1, K10 protein)",[5],inhibit differentiation
Nc1ncnc2c1ncn2[C@@H]1O[C@H](COP(=O)(O)OP(=O)(O)OP(=O)(O)O)[C@@H](O)[C@H]1O [ATP],reversibility of the hyperpolarization,"[4]; 1 μM ATP, n=9",could be reversed rapidly by washing out
same,hyperpolarization,"[4]; 10 μM ATP, n=28",30±2 mV
same,change in the membrane potential on perfusion,"[4]; ATP 1-1000 μM, transient depolarization followed by long-lasting hyperpolarization",biphasic change in the membrane potential
same,duration of the strong hyperpolarization after addition,[4]; ATP concentrations of ≧10 μM,at least 5 min
[Ba+2] [Ba^2+],blockers leading to a comparable depolarization on a plateau during treatment with ATP,[4],None
"CCn1c(=O)[nH]c2cc(Cl)c(Cl)cc21 [DCEBIO, 5,6-dichloro-1-ethyl-1,3-dihydro-2H-benzimidazol-2-one]","concentration for the same electrophysiological effect as 1-EBIO, times less concentrated",[4]; HaCaT cells,300-1000 times
CCCCCCCCCCCCCC(=O)O[C@@H]1[C@@H](C)[C@@]2(O)[C@@H](C=C(CO)C[C@]3(O)C(=O)C(C)=C[C@@H]23)[C@@H]2C(C)(C)[C@]12OC(C)=O [PMA],influence on the effect of ATP,[4],no influence
CC[N+](CC)(CC)CC [TEA],blockers leading to a comparable depolarization on a plateau during treatment with ATP,[4],None
Clc1ccccc1C(c1ccccc1)(c1ccccc1)n1ccnc1 [clotrimazole],influence on proliferation,[2]; clotrimazole 10 μM,complete inhibition
same,influence on proliferation,"[2]; clotrimazole 10 μM, listed as Clotrimazole",inhibited proliferation completely
same,"effect on the ATP-induced electrophysiological response, compared with 100 nM ChTx","[4]; clotrimazole 1 μM prior to ATP, n=3",The same effect
NCCc1c[nH]cn1 [histamine],electrophysiological response compared with ATP,"[4]; histamine 100 μM, n=4",practically identical quantitatively and kinetically
calphostin C,effect on the ATP-mediated change in voltage,[4]; calphostin C 50 nM,no effect
charybdotoxin (QFTNVSCTTSKECWSVCQRLHNTSRGKCMNKKCRCYS),influence on proliferation,[2]; charybdotoxin 200 nM,retarded proliferation; also recorded: growth which was only retarded
same,effect on the established ATP-mediated hyperpolarization,"[4]; ChTx 100 nM added after ATP, ATP still present, n=2",complete reversal of the hyperpolarization
same,effect on the ATP-induced electrophysiological response,"[4]; ChTx 100 nM prior to ATP, n=4, potential stayed on a depolarized plateau",completely prevented repolarization
same,effect on the ATP-induced electrophysiological response,"[4]; ChTx 10-100 nM prior to ATP, n=15",retarded repolarization of the rapid depolarization and prevented hyperpolarization
same,inhibition of the ATP-mediated hyperpolarization,[4]; charybdotoxin at various concentrations prior to ATP,dose-dependent inhibition
